Laboratory results from patent EP4781984A1 (Beyang Therapeutics Co., Ltd., priority 2023, dated 2025).
Converted amounts (≈) assume the structure as drawn. Values belong to the compound of their own block, whether it stands above or below them.

Legend:
[1] = biological target: T1, VEGFR3 (Homo sapiens, UniProt P35916); test: Kinase inhibitory activity, Mobility Shift Assay (VEGFR3); type: biochemical
T1 construct: purchased Invitrogen PV4129
Method: (§1) Assay for Inhibitory Activity of Compounds Against VEGFR and EGFR Kinases
(§2) This assay directly monitors the inhibitory activity of compounds on kinase phosphorylation by measuring non-phosphorylated and phosphorylated substrates in the kinase reaction using Mobility Shift Assays/IMAP™ analysis. Table 2. Reagents and Instruments
(§3) Kinase and DTT were added to 1X kinase buffer to form a 2.5X kinase solution; 10 µL of the 2.5X kinase solution was transferred to a 384-well reaction plate, and 1X kinase buffer was added to the negative control wells. The plate was incubated at room temperature for 10 minutes; FAM-labeled peptide, MgCl2, ATP, and other reagents were added to 1X kinase buffer to form a 2.5X substrate solution; 10 µL of the above 2.5X substrate solution was transferred to the 384-well reaction plate; the plate was incubated at 28°C for varying times, and then 25 µL of stop solution was added to the 384-well reaction plate to terminate the reaction. Conversion rate data were read on a CaliperEZ Reader II. […] IC50 values were fitted using XLFit excel add-in version 5.4.0.8. Y = Bottom + (Top−Bottom)/(1 + […]) [formula]
(§4) X is the log value of compound concentration, Y is the inhibition rate (% inhibition).

[2] = biological target: T2, VEGFR1 (Homo sapiens, UniProt P17948); test: Kinase inhibitory activity, Mobility Shift Assay (VEGFR1); type: biochemical
T2 construct: purchased Invitrogen PR6731B
T2 sequence (P17948 27-1338): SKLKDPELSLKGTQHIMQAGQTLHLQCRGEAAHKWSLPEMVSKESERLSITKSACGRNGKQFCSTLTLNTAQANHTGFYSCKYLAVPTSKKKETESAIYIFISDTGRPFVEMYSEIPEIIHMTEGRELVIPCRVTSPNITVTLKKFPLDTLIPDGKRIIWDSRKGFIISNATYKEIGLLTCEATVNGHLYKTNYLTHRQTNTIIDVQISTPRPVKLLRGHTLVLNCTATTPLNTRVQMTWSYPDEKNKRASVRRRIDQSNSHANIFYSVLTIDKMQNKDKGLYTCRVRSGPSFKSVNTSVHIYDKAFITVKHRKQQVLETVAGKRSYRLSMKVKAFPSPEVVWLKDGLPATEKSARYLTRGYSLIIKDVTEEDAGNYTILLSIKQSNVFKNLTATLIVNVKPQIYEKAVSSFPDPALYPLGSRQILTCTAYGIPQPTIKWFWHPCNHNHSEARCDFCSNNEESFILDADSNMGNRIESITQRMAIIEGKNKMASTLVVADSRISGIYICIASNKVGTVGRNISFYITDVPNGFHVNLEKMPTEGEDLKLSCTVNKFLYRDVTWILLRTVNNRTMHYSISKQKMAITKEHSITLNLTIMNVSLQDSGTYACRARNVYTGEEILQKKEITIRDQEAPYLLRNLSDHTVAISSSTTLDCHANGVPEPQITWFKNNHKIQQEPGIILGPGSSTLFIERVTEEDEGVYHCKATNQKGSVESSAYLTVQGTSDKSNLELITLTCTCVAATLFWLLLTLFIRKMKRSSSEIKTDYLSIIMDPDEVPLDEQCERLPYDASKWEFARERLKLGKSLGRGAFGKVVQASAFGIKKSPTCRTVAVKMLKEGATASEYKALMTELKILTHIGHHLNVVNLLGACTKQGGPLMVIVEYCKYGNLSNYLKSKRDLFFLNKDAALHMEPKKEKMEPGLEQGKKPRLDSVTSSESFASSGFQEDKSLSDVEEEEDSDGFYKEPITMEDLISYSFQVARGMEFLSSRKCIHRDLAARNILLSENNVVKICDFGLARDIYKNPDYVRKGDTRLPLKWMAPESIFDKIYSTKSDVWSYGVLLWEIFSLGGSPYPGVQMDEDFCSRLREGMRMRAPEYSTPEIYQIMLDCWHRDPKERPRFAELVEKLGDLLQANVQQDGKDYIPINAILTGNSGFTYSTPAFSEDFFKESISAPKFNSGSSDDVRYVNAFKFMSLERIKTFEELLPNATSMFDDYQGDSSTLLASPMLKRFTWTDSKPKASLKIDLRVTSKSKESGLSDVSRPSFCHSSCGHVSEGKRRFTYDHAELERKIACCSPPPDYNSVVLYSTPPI
Method: as §1, §2, §3, §4

[3] = Thermodynamic solubility test; type: physicochemical; conditions: buffer solution, aqueous buffer, thermodynamic from solid; thermodynamic solubility, room temperature, 8 hours shaking; buffers pH 2.0, 6.5, 7.4 used, pH of the tabulated value not given
Summary of the method: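 Samples sonicated 10 min, shaken 8 h at room temperature, re-sonicated and centrifuged at 13000 rpm for 15 min. Supernatant recentrifuged and analysed by LC-MS, with concentrations quantified against a 3–5 point calibration curve.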

[4] = tested on: melanin; test: Compound binding to melanin; type: in vitro ADME; conditions: cuttlefish (Sepia officinalis), melanin suspension (1 mg/mL), percentage of free drug (not bound to melanin), 2 µM compound, melanin 1 mg/mL in PBS pH 7.4, 37°C
Summary of the method: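 Compound at 2 µM final incubated with 1 mg/mL Sepia melanin in PBS pH 7.4, 37°C, 2 hours with shaking; blank in PBS with 0.1% BSA. Supernatant concentration by LC-MS/MS. Fb = 100 − (Ctest/Ccontrol) × 100%.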

[5] = biological target: T3, VEGFR2 (Homo sapiens, UniProt P35968); test: Kinase inhibitory activity, Mobility Shift Assay (VEGFR2); type: biochemical
T3 construct: purchased Carna 08-191
T3 sequence (P35968 20-1356): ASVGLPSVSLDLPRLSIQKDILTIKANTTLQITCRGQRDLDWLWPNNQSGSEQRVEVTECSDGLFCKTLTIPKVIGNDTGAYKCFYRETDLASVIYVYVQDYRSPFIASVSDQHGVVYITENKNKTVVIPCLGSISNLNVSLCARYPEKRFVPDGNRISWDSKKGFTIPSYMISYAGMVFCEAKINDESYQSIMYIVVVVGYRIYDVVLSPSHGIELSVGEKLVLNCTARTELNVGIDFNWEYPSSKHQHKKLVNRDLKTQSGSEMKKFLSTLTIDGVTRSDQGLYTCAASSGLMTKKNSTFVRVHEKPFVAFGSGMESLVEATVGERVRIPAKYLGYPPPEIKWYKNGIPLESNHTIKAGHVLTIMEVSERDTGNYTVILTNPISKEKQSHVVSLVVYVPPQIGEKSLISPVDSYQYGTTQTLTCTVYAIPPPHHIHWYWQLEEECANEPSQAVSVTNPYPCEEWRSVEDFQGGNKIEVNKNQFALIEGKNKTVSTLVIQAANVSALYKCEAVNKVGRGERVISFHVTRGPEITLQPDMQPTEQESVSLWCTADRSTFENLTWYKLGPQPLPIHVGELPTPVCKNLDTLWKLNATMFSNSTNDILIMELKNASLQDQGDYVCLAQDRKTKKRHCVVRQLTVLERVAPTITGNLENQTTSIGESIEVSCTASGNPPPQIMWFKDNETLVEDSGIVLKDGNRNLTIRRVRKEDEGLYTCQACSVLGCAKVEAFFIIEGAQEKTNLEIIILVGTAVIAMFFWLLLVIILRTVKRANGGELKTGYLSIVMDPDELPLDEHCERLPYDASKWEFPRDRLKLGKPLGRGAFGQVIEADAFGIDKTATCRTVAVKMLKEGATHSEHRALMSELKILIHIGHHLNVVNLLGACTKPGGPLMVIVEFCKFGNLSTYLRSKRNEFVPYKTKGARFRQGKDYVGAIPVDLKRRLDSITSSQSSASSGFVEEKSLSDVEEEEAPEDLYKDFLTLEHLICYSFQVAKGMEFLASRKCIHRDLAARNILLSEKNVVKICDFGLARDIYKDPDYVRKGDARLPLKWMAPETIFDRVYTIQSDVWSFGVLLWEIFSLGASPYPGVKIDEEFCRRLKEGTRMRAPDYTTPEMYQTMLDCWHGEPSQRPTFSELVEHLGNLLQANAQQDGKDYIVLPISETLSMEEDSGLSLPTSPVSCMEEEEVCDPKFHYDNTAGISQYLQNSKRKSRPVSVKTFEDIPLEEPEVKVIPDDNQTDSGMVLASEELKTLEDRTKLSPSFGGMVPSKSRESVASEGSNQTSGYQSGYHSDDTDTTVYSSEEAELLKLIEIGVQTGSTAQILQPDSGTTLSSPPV
Method: as §1, §2, §3, §4

[6] = Ophthalmic formulations based on polyethylene glycol series vehicles: composition and state (Example 7); type: physicochemical; conditions: Table 12: 1mg/ml; Polyethylene glycol 400 5, Hydroxypropyl-β-cyclodextrin 10, Tris-HCl buffer (pH 8.3) 10mM, Hydroxypropyl methylcellulose 1, Poloxamer 188 1
Description: In the following ophthalmic formulation preparation examples, "solution" refers to a clear, transparent liquid without visible insoluble matter. "Near-clear solution" refers to a liquid that appears close to a solution upon visual observation but may contain a small amount of insoluble particles or have a slightly opaque color. "Suspension" refers to a liquid that is visibly turbid or opaque. "Gel" refers to a completely or partially gel-like solid.
Example 7: Ophthalmic Formulations Based on Polyethylene Glycol Series Vehicles
According to the formulation composition shown in the tables below, weigh the compound powder, add it to polyethylene glycol 400, and sonicate until dissolved or nearly dissolved (heat to 50°C if necessary). Add this to a Tris-HCl buffer solution containing hydroxypropyl-β-cyclodextrin, poloxamer 188, and gellan gum (or other viscosity modifier), vortex to mix, and prepare into an eye drop formulation.

[7] = Plasma and ocular tissue distribution after single ocular administration of formulations in Dutch Belted rabbits (Example 9); type: in vivo; conditions: for concentration at 0.5 h: male, rabbit, plasma, other: ocular administration (eye drops)
Method: Male Dutch Belted rabbits used in this experiment were purchased from Pizhou Dongfang Breeding Co., Ltd., with animal weights ranging from 1.5 to 2.5 kg. All procedures performed on experimental animals in this experiment complied with the relevant SOP requirements of Suzhou Sunstone New Drug Development Co., Ltd. and were approved by the Institutional Animal Care and Use Committee (IACUC) of Suzhou Sunstone New Drug Development Co., Ltd. Formulation Preparation: Weigh approximately 1 mg of the test substance into a glass vial. After necessary calculation/conversion, sequentially add the eye drop formulation vehicle (Tris-HCl buffer (0.05 mol/L): Tween 80: 0.5% CMC-Na = 49: 1:50). Vortex and sonicate after adding Tris-HCl buffer and Tween 80, then add 0.5% CMC-Na, vortex, and sonicate or cut if necessary, to prepare a 1 mg/mL dosing formulation. All prepared dosing formulations were freshly prepared on the day of administration, sampled, and the actual concentration of the dosing formulation was determined.
On the day of the experiment, animals were administered 1 mg/mL (0.05 mg/eye, 50 µL/eye). There were 2 animals per group. Animals were euthanized at 0.5, 4, or 8 hours after administration, respectively, by an appropriate method, and blood samples and ocular tissues (i.e., cornea, retina, choroid, and sclera) were collected. The collected 1 mL of whole blood was placed in an EDTA-K2 anticoagulant tube, inverted several times to mix thoroughly, and centrifuged (1500-1600 g) for 10 minutes within 30 minutes to separate plasma. The obtained plasma samples were stored at -80°C for bioanalysis. After collection, ocular tissues were washed with pre-cooled saline, dried, and stored at -80°C or under equivalent conditions for subsequent tissue homogenization and sample analysis. For ocular tissues requiring homogenization, the entire or a portion of the tissue was selected, accurately weighed, and homogenized at a 1:10 ratio with 20% methanol-water. The tissue homogenate was stored at -80°C for sample analysis. The concentrations of each analyte in rabbit ocular tissues and plasma obtained in this experiment were determined using an LC-MS/MS analytical method. The matrices were Dutch rabbit plasma (EDTA-K2 anticoagulated) and rabbit ocular tissue (1:10, 20% methanol-water). Left and right eyes were tested separately. BLOQ (Below the Limit of Quantification) is the lowest analyte concentration that can be quantified with acceptable precision and accuracy. Compounds were diluted 1:10 with homogenate before analysis, and if the concentration after dilution was less than 1 ng/mL, it was marked as BLOQ.
Example 9: Detection of Plasma and Ocular Tissue Distribution after Single Ocular Administration of Formulations in Dutch Belted Rabbits
The experimental procedure refers to Example 6. Animals were administered eye drops at 5 mg/mL (0.25 mg/eye, 50 µL/eye) or 1 mg/mL (0.05 mg/eye, 50 µL/eye), respectively. Table 22 Experimental Results
Except for compound I-32, the other components of Suspension A and Solution B are respectively: • Suspension A: Tris(hydroxymethyl)aminomethane-Hydrochloric Acid Buffer (0.05M): Tween 80: 0.5% (w/v) Sodium Carboxymethylcellulose aqueous solution = 49:1:50 (v/v/v); • Solution B: Polyethylene Glycol 400: 50mM Tris(hydroxymethyl)aminomethane-Hydrochloric Acid Buffer (containing 10% Hydroxypropyl-β-cyclodextrin, 1% Poloxamer 188, 0.3% Gellan Gum Gelrite, w/v) = 5:95 (v/v).

[8] = Solution B, 1 mg/mL (0.05 mg/eye, 50 µL/eye), formulation pH 8.3
[9] = Suspension A, 1 mg/mL (0.05 mg/eye, 50 µL/eye), formulation pH 8.4
[10] = Suspension A, 5 mg/mL (0.25 mg/eye, 50 µL/eye), formulation pH 8.4

T1 sequence (P35916 25-1363): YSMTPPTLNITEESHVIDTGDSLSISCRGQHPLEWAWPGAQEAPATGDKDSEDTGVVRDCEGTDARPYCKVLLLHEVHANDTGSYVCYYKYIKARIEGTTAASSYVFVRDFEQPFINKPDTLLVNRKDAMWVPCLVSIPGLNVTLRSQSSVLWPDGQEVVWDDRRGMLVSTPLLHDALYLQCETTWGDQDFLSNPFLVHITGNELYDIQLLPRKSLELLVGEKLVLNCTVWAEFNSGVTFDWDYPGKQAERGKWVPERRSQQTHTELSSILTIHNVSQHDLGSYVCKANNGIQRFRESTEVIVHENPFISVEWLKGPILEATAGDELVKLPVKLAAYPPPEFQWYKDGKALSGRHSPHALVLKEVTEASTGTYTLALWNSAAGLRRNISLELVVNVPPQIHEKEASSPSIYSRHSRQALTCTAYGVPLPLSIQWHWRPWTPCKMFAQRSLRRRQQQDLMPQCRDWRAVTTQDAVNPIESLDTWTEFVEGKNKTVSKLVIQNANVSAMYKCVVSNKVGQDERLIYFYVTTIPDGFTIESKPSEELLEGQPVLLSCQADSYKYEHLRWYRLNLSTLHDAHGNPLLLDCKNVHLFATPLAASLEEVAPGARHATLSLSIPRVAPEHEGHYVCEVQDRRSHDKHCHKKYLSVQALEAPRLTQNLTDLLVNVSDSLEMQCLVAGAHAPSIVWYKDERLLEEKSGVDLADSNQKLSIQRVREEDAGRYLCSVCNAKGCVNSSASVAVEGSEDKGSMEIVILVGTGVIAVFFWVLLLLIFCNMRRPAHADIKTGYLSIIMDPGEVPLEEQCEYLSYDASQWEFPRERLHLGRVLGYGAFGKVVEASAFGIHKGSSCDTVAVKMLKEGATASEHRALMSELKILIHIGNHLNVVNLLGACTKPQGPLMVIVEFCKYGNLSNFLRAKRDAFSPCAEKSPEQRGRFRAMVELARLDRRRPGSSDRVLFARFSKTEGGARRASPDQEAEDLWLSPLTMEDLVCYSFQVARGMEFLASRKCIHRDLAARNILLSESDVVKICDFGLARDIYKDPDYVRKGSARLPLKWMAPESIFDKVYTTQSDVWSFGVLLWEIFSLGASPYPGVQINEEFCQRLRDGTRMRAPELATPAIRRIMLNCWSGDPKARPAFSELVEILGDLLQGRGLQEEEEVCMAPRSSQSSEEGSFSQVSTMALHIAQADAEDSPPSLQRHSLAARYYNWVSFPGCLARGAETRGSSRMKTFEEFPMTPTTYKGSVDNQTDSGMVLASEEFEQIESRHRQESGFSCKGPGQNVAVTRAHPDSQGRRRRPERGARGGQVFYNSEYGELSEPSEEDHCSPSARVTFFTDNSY

IC50 [1]: ≤ 1 nM
IC50 [2]: ≤ 1 nM
solubility at 8 h [3]: 0.5 µg/mL (≈ 0.97 µM)
fraction unbound at 2 h, 2 µM [4]: 0.01 to 0.05
Structure (SMILES): CNC(=O)c1ccccc1Sc1ccc2c(/C=C/c3ccc(OCCN4CCOCC4)cn3)n[nH]c2c1 [Compound I-3, N-methyl-2-((3-((E)-2-(5-(2-(morpholin-4-yl)ethoxy)pyridin-2-yl)ethenyl)-1H-indazol-6-yl)thio)benzamide]

IC50 [1]: ≤ 1 nM
IC50 [5]: ≤ 1 nM
IC50 [2]: ≤ 1 nM
solubility at 8 h [3]: 413 µg/mL (≈ 781 µM)
fraction unbound at 2 h, 2 µM [4]: > 0.05
Structure (SMILES): CNC(=O)c1ccccc1Sc1ccc2c(/C=C/c3ccc(OCCN4CCN(C)CC4)cn3)n[nH]c2c1 [Compound I-4]

IC50 [1]: ≤ 1 nM
IC50 [5]: ≤ 1 nM
IC50 [2]: ≤ 1 nM
solubility at 8 h [3]: 177 µg/mL (≈ 335 µM)
fraction unbound at 2 h, 2 µM [4]: 0.01 to 0.05
Structure (SMILES): CNC(=O)c1ccccc1Sc1ccc2c(/C=C/c3ccc(OCCC4CCN(C)CC4)cn3)n[nH]c2c1 [Compound I-5]

IC50 [2]: ≤ 1 nM
solubility at 8 h [3]: 226 µg/mL (≈ 452 µM)
fraction unbound at 2 h, 2 µM [4]: 0.01 to 0.05
Structure (SMILES): CNC(=O)c1ccccc1Sc1ccc2c(/C=C/c3ccc(OCCN4CCCC4)cn3)n[nH]c2c1 [Compound I-6]

IC50 [1]: ≤ 1 nM
Structure (SMILES): CNC(=O)c1ccccc1Sc1ccc2c(/C=C/c3ccc(O)cn3)n[nH]c2c1 [Compound I-10, 2-({3-[(E)-2-(5-hydroxypyridin-2-yl)ethenyl]-1H-indazol-6-yl}thio)-N-methylbenzamide]

IC50 [1]: ≤ 1 nM
fraction unbound at 2 h, 2 µM [4]: 0.01 to 0.05
Structure (SMILES): CNC(=O)c1ccccc1Sc1ccc2c(/C=C/c3ccn(CCN4CCCC4)n3)n[nH]c2c1 [Compound I-13]

IC50 [1]: > 100 nM
solubility at 8 h [3]: 859 µg/mL (≈ 1730 µM)
fraction unbound at 2 h, 2 µM [4]: 0.01 to 0.05
Structure (SMILES): CNC(=O)c1ccccc1Sc1ccc2c(C#Cc3cc(OCCN4CCCC4)ccn3)n[nH]c2c1 [Compound I-23]

IC50 [1]: > 100 nM
IC50 [5]: > 100 nM
IC50 [2]: > 100 nM
Structure (SMILES): CNC(=O)c1ccccc1Sc1ccc2c(Nc3ccc(OCCN4CCCC4)cn3)n[nH]c2c1 [Compound I-30, N-methyl-2-((3-((5-(2-(pyrrolidin-1-yl)ethoxy)pyridin-2-yl)amino)-1H-indazol-6-yl)thio)benzamide]

State Description: pH [6]: ~8
State Description: state [6]: solution
Choroid AUC [7, 8]: 381 ng·h/g
Conjunctiva AUC [7, 8]: 2142 ng·h/g
Cornea AUC [7, 8]: 590 ng·h/g
Plasma Concentration 0.5h [7, 8]: BLOQ
Retina AUC [7, 8]: 784 ng·h/g
Sclera AUC [7, 8]: 998 ng·h/g
Choroid AUC [7, 9]: 526 ng·h/g
Conjunctiva AUC [7, 9]: 6157 ng·h/g
Cornea AUC [7, 9]: 3380 ng·h/g
Iris AUC [7, 9]: 162 ng·h/g
Retina AUC [7, 9]: 330 ng·h/g
Sclera AUC [7, 9]: 2175 ng·h/g
Choroid AUC [7, 10]: 1594.5 ng·h/g
Conjunctiva AUC [7, 10]: 17380.5 ng·h/g
Cornea AUC [7, 10]: 5175 ng·h/g
Iris AUC [7, 10]: 549.5 ng·h/g
Retina AUC [7, 10]: 613 ng·h/g
Sclera AUC [7, 10]: 2439.5 ng·h/g
concentration at 0.5 h [7, 9]: 2.4 ng/mL
concentration at 0.5 h [7, 10]: 5.6 ng/mL
solubility at 8 h [3]: 327 µg/mL (≈ 672 µM)
fraction unbound at 2 h, 2 µM [4]: 0.01 to 0.05
Structure (SMILES): CNC(=O)c1ccccc1Sc1ccc2c(/C=C/c3cnn(CCCN4CCCC4)c3)n[nH]c2c1 [Compound I-32, N-methyl-2-((3-((E)-2-(1-(3-(pyrrolidin-1-yl)propyl)-1H-pyrazol-4-yl)ethenyl)-1H-indazol-6-yl)thio)benzamide]

IC50 [2]: > 100 nM
solubility at 8 h [3]: 16.2 µg/mL (≈ 31.3 µM)
fraction unbound at 2 h, 2 µM [4]: > 0.05
Structure (SMILES): CNC(=O)c1c(F)cccc1Sc1ccc2c(/C=C/c3ccc(OCCN4CCCC4)cn3)n[nH]c2c1 [Compound I-36, 2-fluoro-N-methyl-6-({3-[(E)-2-{5-[2-(pyrrolidin-1-yl)ethoxy]pyridin-2-yl}ethenyl]-1H-indazol-6-yl}sulfanyl)benzamide]

IC50 [1]: ≤ 1 nM
IC50 [5]: ≤ 1 nM
IC50 [2]: ≤ 1 nM
fraction unbound at 2 h, 2 µM [4]: 0.01 to 0.05
Structure (SMILES): CN1CCN(c2ccc(/C=C/c3n[nH]c4cc(Sc5ccccc5C(=O)NC5CC5)ccc34)nc2)CC1 [Compound I-38, N-cyclopropyl-2-({3-[(E)-2-[5-(4-methylpiperazin-1-yl)pyridin-2-yl]ethenyl]-1H-indazol-6-yl}thio)benzamide]

IC50 [5]: ≤ 1 nM
IC50 [2]: ≤ 1 nM
Structure (SMILES): CNC(=O)c1ccccc1Sc1ccc2c(/C=C/c3ccc(OC[C@@H]4CCN(C)C4)cn3)n[nH]c2c1 [Compound I-39]

IC50 [2]: ≤ 1 nM
fraction unbound at 2 h, 2 µM [4]: 0.01 to 0.05
Structure (SMILES): CN(C)Cc1ccc(/C=C/c2n[nH]c3cc(Sc4ccccc4C(=O)NC4CC4)ccc23)nc1 [Compound I-40, N-cyclopropyl-2-((3-((E)-2-(5-((dimethylamino)methyl)pyridin-2-yl)ethenyl)-1H-indazol-6-yl)thio)benzamide]

IC50 [1]: ≤ 1 nM
IC50 [5]: ≤ 1 nM
Structure (SMILES): O=C(NC1CC1)c1ccccc1Sc1ccc2c(/C=C/c3cccc(CCCN4CCCC4)n3)n[nH]c2c1 [Compound I-121]
